Results as given in PubChem BioAssay (NCI).
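Protocol summary: plate cells (96-well), add compound at 5 concentrations, incubate 48 h, interpolate endpoints linearly. Definition used: TGI = concentration required for complete inhibition of growth.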

Experiments:
Assay in all cases: DTP human tumour cell line panel, 48 h
TK-10 renal = system: TK-10 renal
MALME-3M melanoma = system: MALME-3M melanoma
CCRF-CEM leukemia = system: CCRF-CEM leukemia
NCI/ADR-RES ovarian = system: NCI/ADR-RES ovarian

Compound | TGI (TK-10 renal) | TGI (MALME-3M melanoma) | TGI (CCRF-CEM leukemia) | TGI (NCI/ADR-RES ovarian)
C=CC1(CBr)CCC(C(C)(C)Br)O1 (stereo unspecified) | 28.5 µM | 27.8 µM | 6.51 µM | 30.7 µM
CC1(C)N=C(N)N=C(N)N1c1ccc(CCCCc2ccc(Cl)cc2Cl)cc1 | 15.7 µM | 16.8 µM | 76 µM | > 100 µM
COC(=O)[C@H]1ON2O[C@@H](O[C@H]3CCCC[C@@H]3C(C)(C)c3ccccc3)C[C@@H]3CC[C@H]1[C@@]32C | > 100 µM |  | > 100 µM | > 100 µM
N#C[C@](CO)(NC(=O)OCc1ccccc1)C(F)F | > 100 µM | > 100 µM | > 100 µM | > 100 µM
O=S(=O)(O)Nc1ccc(-c2nc3ccccc3s2)cc1Cl | > 100 µM | > 100 µM | > 100 µM | > 100 µM
C=CCN1C(=O)/C(=C/c2cccs2)N=C1SC1OC(COC(=O)c2ccccc2)C(OC(=O)c2ccccc2)C1OC(=O)c1ccccc1 (stereo unspecified) | > 100 µM | > 100 µM | 80.9 µM | > 100 µM
COc1cc(/C=C/C(=O)O)ccc1O | > 100 µM | > 100 µM | > 100 µM | > 100 µM
CCC(/C=C/c1ccccc1)=N\NC(=S)N/N=C(/C=C/c1ccccc1)CC | > 100 µM | > 100 µM | > 100 µM | > 100 µM
COC(=O)c1cc(C)ccc1CC(Cc1ccccc1C)C(=O)OC (stereo unspecified) | > 100 µM | > 100 µM | 44.3 µM | > 100 µM
COC(=O)c1ccc(NCC2=CC(=O)c3ccccc3C2=O)cc1 | 37.1 µM | 19.9 µM | > 100 µM | 90.6 µM
C=C1CC(CNc2cc(Cl)nc(N)n2)C1 | > 100 µM | > 100 µM | > 100 µM | > 100 µM
CC1CSc2nc3[nH]c(=S)[nH]c3c(=O)n2C1 (stereo unspecified) | > 100 µM | > 100 µM | > 100 µM | > 100 µM
COc1cccc2c1C(=O)c1ccc3cc(CO)cc(O)c3c1C2=O | 8.43 µM | 0.202 µM | 2.02 µM | 2.28 µM
CC1(C)OC2CN(C(=O)OCc3ccccc3)C(CO)C2O1 (stereo unspecified) | > 100 µM | > 100 µM |  | > 100 µM
C=CCOc1ccc(C2c3c([nH][nH]c3=O)CC(C)(O)C2C(=O)OC)cc1OC (stereo unspecified) | > 100 µM | > 100 µM | > 100 µM | > 100 µM
CC1(C)OC[C@@]2([C@@H]3CC[C@@H](C3)C2(C)C)N1O | > 100 µM | > 100 µM | > 100 µM | > 100 µM
OCC1CCCCN1Cc1nc2ccc(Cl)cc2[nH]1 (stereo unspecified) | > 100 µM | > 100 µM | > 100 µM | > 100 µM
CCOC(=O)c1c(NC(=O)c2ccccc2)sc2c1CCC2 | > 100 µM |  | > 100 µM | > 100 µM
CCOC(=O)NNC1(SC)NC(=O)c2c(cc(Cl)oc2=O)O1 (stereo unspecified) | 10.1 µM |  | 10.5 µM | 25.7 µM

Compound | TGI (TK-10 renal) | TGI (MALME-3M melanoma) | TGI (CCRF-CEM leukemia) | TGI (NCI/ADR-RES ovarian)
O/N=C1\CC2(N3CCOCC3)CCC1(Cc1ccccc1)CC2 |  | > 100 µM | > 100 µM | > 100 µM
c1ccc2c(Cc3c[nH]c4ccccc34)c[nH]c2c1 | 35.2 µM | 51 µM | 37.2 µM | 62 µM
COc1ccc(CN=C2Nc3ccncc3S(=O)(=O)N2c2ccccc2)cc1 | 59.9 µM | > 100 µM | 82.4 µM | > 100 µM
O=C1CNc2cc(N3CCN(c4cccc(C(F)(F)F)c4)CC3)ccc2N1 | > 100 µM | 69.9 µM | > 100 µM | > 91.1 µM
COc1ccc(C2c3cc4c(cc3OC(N3CCOCC3)C2C)OCO4)c(OC)c1 (stereo unspecified) | 69.6 µM | 36.6 µM | 38.1 µM | 9.68 µM
OCCCN(CCc1ccc(Cl)c(Cl)c1)CCN1CCCC1 | > 100 µM | 41.5 µM | > 100 µM | > 100 µM
C#CCSc1cnc2ccccc2c1Sc1c[nH]c2ccccc2c1=O | > 100 µM | > 100 µM | > 100 µM | > 100 µM
CCOC(=O)C1(Cc2ccccc2)CCN(C(=O)c2ccccc2)C2C1C2(Cl)Cl (stereo unspecified) | 59.8 µM | 51.5 µM | 54.1 µM | 69 µM
COc1ccc(/C=N/n2c(Cc3ccc(Cl)cc3)n[nH]c2=O)cc1 |  |  | > 100 µM | > 100 µM
CC1=NN(C(=O)CC(=O)Nc2cccc(Cl)c2)C(=O)C1N=Nc1ccc(S(=O)(=O)c2ccc(N=NC3C(=O)N(C(=O)CC(=O)Nc4cccc(Cl)c4)N=C3C)cc2)cc1 (stereo unspecified) | > 100 µM | > 100 µM | > 100 µM | > 100 µM
C(/C=N/NC1=NCCN1)=N\NC1=NCCN1 |  | > 100 µM | > 100 µM | > 100 µM
O=S(=O)(NC(c1ccccc1)(c1cc2ccccc2[nH]1)c1cc2ccccc2n1S(=O)(=O)c1ccccc1)c1ccccc1 (stereo unspecified) | > 100 µM | > 100 µM | > 100 µM | > 100 µM
c1ccc(-c2cc(-c3cc(-c4ccccc4)n[nH]3)[nH]n2)cc1 | > 100 µM | > 100 µM | > 100 µM | > 100 µM
CCOC(=O)CC[C@@H](NC(=O)c1ccc(NCc2ccc3nc(OC)c(OC)nc3c2)cc1)C(=O)OCC | > 100 µM | 39 µM | > 100 µM | > 100 µM
O=C(COC(=O)c1ccccc1)c1ccc(Br)cc1 | 10.8 µM | 29.4 µM | 25.9 µM | 61.9 µM
C/C=C/[C@@H]1O[C@H](CC#C[Si](C)(C)C)[C@@]2(C=O)C(C)=CC[C@H](C(C)C)[C@@H]12 | 31.5 µM | 37.2 µM | 6.24 µM | 71 µM
C=CCC1(O)c2cccc(O)c2C(=O)c2cccc(O)c21 (stereo unspecified) | 73.5 µM |  |  | 40.2 µM
COc1ccc(S(=O)Cc2cc(OC)ccc2OC)cc1 (stereo unspecified) | > 100 µM | > 100 µM | > 100 µM | > 100 µM
CSc1nc(-c2cc3c(c(SC)n2)CCC3)cc2c1CCC2 | > 100 µM |  | > 100 µM | > 100 µM
